From ChEMBL document CHEMBL2434861, “Novel promising linezolid analogues: rational design, synthesis and biological evaluation” (2013) come the findings set out here.

Values after ≈ are worked out from the molar mass of the structure shown.

As a reminder, the MIC is the least concentration at which growth counts as inhibited. A low value points to a more susceptible organism.

Assay [1] concerns Staphylococcus aureus. Nature of the assay: Antimicrobial activity against methicillin-susceptible Staphylococcus aureus ATCC 29213 after 16 to 20 hrs by microdilution method. Format: functional.
Assay [2] concerns Staphylococcus aureus. As to the kind of experiment: Antimicrobial activity against methicillin-resistant Staphylococcus aureus ATCC 43300 after 16 to 20 hrs by microdilution method. Type of assay: functional. For orientation: Dilution methods test growth across graded concentrations, often in twofold steps.

As for `O=C(NC[C@H]1CN(c2ccc(N3CCOCC3)c(F)c2)C(=O)O1)Nc1ccccc1`, the MIC against Staphylococcus aureus [1] is more than 100 µg/mL.

In turn, `COc1ccc(NC(=O)NC[C@H]2CN(c3ccc(N4CCOCC4)c(F)c3)C(=O)O2)cc1` had an MIC with Staphylococcus aureus [1] of more than 100 µg/mL.

In turn, `O=C(NC[C@H]1CN(c2ccc(N3CCOCC3)c(F)c2)C(=O)O1)Nc1ccc([N+](=O)[O-])cc1` returned a minimum inhibitory concentration (MIC) against Staphylococcus aureus [1] of more than 100 µg/mL.

Turning to `COc1ccc(NC(=S)NC[C@H]2CN(c3ccc(N4CCOCC4)c(F)c3)C(=O)O2)cc1`, the MIC against Staphylococcus aureus [1] was more than 100 µg/mL.

`O=C1O[C@@H](CNC(=S)Nc2ccccc2)CN1c1ccc(N2CCOCC2)c(F)c1` gave an MIC against Staphylococcus aureus [1] of 10 µg/mL (≈ 23.2 µM).

As for `O=C1O[C@@H](CNC(=S)Nc2ccc([N+](=O)[O-])cc2)CN1c1ccc(N2CCOCC2)c(F)c1`, the MIC was 2 µg/mL (≈ 4.21 µM) in the assay with Staphylococcus aureus [1] and 1 µg/mL (≈ 2.1 µM) against Staphylococcus aureus [2].

In the case of `CC(=O)NC[C@H]1CN(c2ccc(N3CCOCC3)c(F)c2)C(=O)O1` [LINEZOLID], the minimum inhibitory concentration (MIC) with Staphylococcus aureus [1] and with Staphylococcus aureus [2] was 1 µg/mL (≈ 2.96 µM) each time.
